The record followed here is patent US20150329498A1, “IRAK INHIBITORS AND USES THEREOF” (Nimbus Iris, Inc., priority 2014, published 2015).

Assay [1] concerns the target T1, IRAK4 (Homo sapiens, UniProt Q9NWZ3).
T1 construct: purchased CARNA Bioscience 09-145
T1 sequence (Q9NWZ3 1-460): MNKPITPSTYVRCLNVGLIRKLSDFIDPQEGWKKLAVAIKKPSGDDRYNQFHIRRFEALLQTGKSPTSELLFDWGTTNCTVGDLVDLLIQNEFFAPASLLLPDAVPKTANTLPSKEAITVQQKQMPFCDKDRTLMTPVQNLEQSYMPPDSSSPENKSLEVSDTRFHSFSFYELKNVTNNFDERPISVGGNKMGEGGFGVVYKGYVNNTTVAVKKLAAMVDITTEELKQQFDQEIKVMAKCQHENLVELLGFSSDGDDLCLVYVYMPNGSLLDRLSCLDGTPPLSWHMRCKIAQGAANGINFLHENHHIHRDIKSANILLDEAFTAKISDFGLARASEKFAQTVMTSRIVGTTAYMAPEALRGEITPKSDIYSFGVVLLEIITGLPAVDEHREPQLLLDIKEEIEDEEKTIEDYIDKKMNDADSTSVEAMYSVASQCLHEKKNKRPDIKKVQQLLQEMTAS
The experiment in a line: IRAK-4 activity inhibition assay (Caliper). Format: biochemical. The conditions noted are these: 3.5 nM IRAK4, 1.5 μM Peptide 8, 37 μM ATP. Here is the method: A 1x kinase base buffer was prepared from 50 mM HEPES, pH 7.5 and 0.0015% Brij-35. A stop buffer was prepared from 100 mM HEPES, pH 7.5, 0.015% Brij-35, 0.2% Coating Reagent #3, and 50 mM EDTA.
Test compound was diluted to 50× of the final desired highest inhibitor concentration in reaction by 100% DMSO. 100 ul of this compound dilution was transferred to a well in a 96-well plate. For example, if desired highest inhibitor concentration in IC50 determination is 100 uM, then prepare 5000 uM of compound DMSO solution in this step.
Test compound was serially diluted by transferring 30 μl to 60 μl of 100% DMSO in the next well and so forth for a total of 10 concentrations. 100 μl of 100% DMSO was added to two empty wells for no compound control and no enzyme control in the same 96-well plate.
A new 96-well plate was marked as intermediate plate. 5 μl of compound serial dilution was transferred from source plate to the corresponding wells of the intermediate plate. 45 μl of 1x kinase base buffer (KB buffer) was added to each well of the intermediate plate. The intermediate plate was placed for 10 min on a shaker.
5 μl of each well was transferred from the 96-well intermediate plate to a 384-well plate in duplicates. For example, A1 of the 96-well plate is transferred to A1 and A2 of the 384-well plate. A2 of the 96-well plate is transferred to A3 and A4 of the 384-well plate, and so on.
IRAK4 and DTT in 1x kinase base buffer was added. The 2.5x enzyme mix contained 8.8 nM IRAK4 and 5 mM DTT.
Peptide 8, ATP, MgCl2 and MnCl2 were added in the 1x kinase base buffer. The 2.5x peptide mix contained 3.75 μM peptide 8, 92.5 μM ATP, 12.5 mM MgCl2 and 2.5 mM MnCl2.
Assay plate already contained 5 μl of compound in 10% DMSO. Added 10 μl of 2.5x enzyme solution to each well of the 384-well assay plate, except no enzyme control wells. The final concentration of IRAK4 in reaction was 3.5 nM. Added 10 μl of 1x kinase base buffer to no enzyme control wells in the assay plate. Incubated at room temperature for 10 min.
Added 10 μl of 2.5x peptide solution to each well of the 384-well assay plate. The final concentration of Peptide 8 and ATP was 1.5 μM and 37 μM, respectively. Incubated at for 40 minutes. Added 25 μl of stop buffer to stop reaction. Collected data on Caliper.
Copied conversion % data from Caliper program. Converted conversion % values to percent inhibition values. Percent inhibition=(max−conversion %)/(max−min)*100, where “max” means the conversion % of DMSO control and “min” means the conversion % of no enzyme control.
The compound numbers correspond to the compound numbers in Table 1. Compounds having an activity designated as “A” provided an IC50≦5 μM; compounds having an activity designated as “B” provided an IC50 of 5-20 μM; compounds having an activity designated as “C” provided an IC50 of 20-50 μM; and compounds having an activity designated as “D” provided an IC50≧50 μM. “NA” stands for “not assayed.”

In assay [2] the test system is TNFα production in THP-1 cells. Briefly: LPS induced TNFα production assay in THP-1 cells. Format: cell-based. The conditions noted are these: Homo sapiens, 300 ng/mL LPS, measured at 5 hours. On the procedure:
(§1) Provided compounds were also assayed in an LPS (Lipopolysaccharide) or R848 (TLR-7 agonist) induced cytokine (TNFα and IL8) production assay in THP-1 cells, human white blood cells (hWBC), and human whole blood. The exemplary protocol for this assay in THP-1 cells was as follows below.
(§2) THP-1 cells from ATCC (TIB-202) were cultured in RPMI Medium 1640 (Invitrogen, Cat No. A10491-01), 10% fetal bovine serum (Invitrogen, Cat No. 10099141, Lot No. 8172882) containing 100 U/mL Penicillin, 100 μg/mL streptomycin (Invitrogen, Cat No. 15140-122), and 50 uM 2-Mercaptoethanol (Invitrogen, Cat No. 21985023). LPS-EK ultra pure (Invivogen, Cat No. tlrl-peklps) was used to induce IL8 and TNFα production, that was detected in the cell culture supernatant by IL8 HTRF kit (Cisbio, Cat No. 62IL8PEB) and TNFα HTRF kit (Cisbio, Cat No. 62TNFPEB), as per manufacturer instructions. Cells were cultured in 96 well assay plates at 100,000 cells per well, and compounds diluted in final 0.3% DMSO were pre-incubated with cells for 1 hour prior to stimulation with 300 ng/mL LPS. Cytokine production in cell supernatant was measured at 5 hours for TNFα production, and at 16 hours for IL8 production and assessment of cell viability.
(§3) The compound numbers correspond to the compound numbers in Table 1. Compounds having an activity designated as “A” provided an IC50≦0.5 μM; compounds having an activity designated as “B” provided an IC50 of 0.5-5.0 μM; compounds having an activity designated as “C” provided an IC50>5.0 μM. “NA” stands for “not assayed.”

Assay [3] relates to IL8 production in THP-1 cells. Briefly: LPS induced IL8 production assay in THP-1 cells. The conditions noted are these: Homo sapiens, 300 ng/mL LPS, measured at 16 hours. Format: cell-based. On the procedure:
as §1, §2, §3

Molecules are shown by their SMILES.

For the molecule `Brc1ccc2ncnc(N[C@H]3CC[C@H](N4CCOCC4)CC3)c2c1` [Compound I-2, 6-bromo-N-((1r,4r)-4-morpholinocyclohexyl)quinazolin-4-amine], the concentration for half-maximal inhibition (IC50) – broadly, the midpoint of a concentration-inhibition curve – in assay [1] is ≤ 5000 nM; in assay [2], ≤ 500 nM; in assay [3], ≤ 500 nM.
With `NC(=O)c1ccc2ncnc(N[C@H]3CC[C@H](N4CCOCC4)CC3)c2c1` [Compound I-5, 4-(((1r,4r)-4-morpholinocyclohexyl)amino)quinazoline-6-carboxamide], the results for the half-maximal inhibitory concentration (IC50) in assay [1], in assay [2] and in assay [3] were ≤ 5000 nM, 500 to 5000 nM and > 5000 nM, respectively.
Taken in the same sequence, the figures for `Cn1cc(Nc2nc(N[C@H]3CC[C@H](N4CCOCC4)CC3)c3cc(Br)ccc3n2)cn1` [Compound I-10, 6-bromo-N2-(1-methyl-1H-pyrazol-4-yl)-N4-((1r,4r)-4-morpholinocyclohexyl)quinazoline-2,4-diamine] were ≤ 5000 nM, ≤ 500 nM and ≤ 500 nM.
Consider `Cn1cc(Nc2nc(N[C@H]3CC[C@H](N4CCOCC4)CC3)c3cc(C#N)ccc3n2)cn1` [Compound I-11, 2-((1-methyl-1H-pyrazol-4-yl)amino)-4-(((1r,4r)-4-morpholino-cyclohexyl)amino)quinazoline-6-carbonitrile], for which the IC50 in assay [1] was ≤ 5000 nM; in assay [2] it was ≤ 500 nM; in assay [3], ≤ 500 nM.
As to `N#Cc1ccc2ncnc(N[C@H]3CC[C@H](N4CCC5(CC4)COC5)CC3)c2c1` [Compound I-14, 4-(((1r,4r)-4-(2-oxa-7-azaspiro[3.5]nonan-7-yl)cyclohexyl)amino)-quinazoline-6-carbonitrile], the 50% inhibitory concentration (IC50) in assay [1] is ≤ 5000 nM; in assay [2], ≤ 500 nM; in assay [3], ≤ 500 nM.
In the case of `CCc1ccc2ncnc(N[C@H]3CC[C@H](N4CCOCC4)CC3)c2c1` [Compound I-15, 6-ethyl-N-((1r,4r)-4-morpholinocyclohexyl)quinazolin-4-amine], the 50% inhibitory concentration (IC50) in assay [1] is ≤ 5000 nM; in assay [2] it was ≤ 500 nM; in assay [3], ≤ 500 nM.
As for `N#Cc1ccc2nc(Nc3cnn(C4CCOCC4)c3)nc(N[C@H]3CC[C@H](N4CCOCC4)CC3)c2c1` [Compound I-16, 4-(((1r,4r)-4-morpholinocyclohexyl)amino)-2-((1-(tetrahydro-2H-pyran-4-yl)-1H-pyrazol-4-yl)amino)quinazoline-6-carbonitrile], the half-inhibitory concentration (IC50) in assay [1] was ≤ 5000 nM; in assay [2] it was ≤ 500 nM; in assay [3] it was ≤ 500 nM.
For `C=Cc1ccc2ncnc(N[C@H]3CC[C@H](N4CCOCC4)CC3)c2c1` [Compound I-20, N-((1r,4r)-4-morpholinocyclohexyl)-6-vinylquinazolin-4-amine], the values for the concentration for half-maximal inhibition (IC50) in assay [1] and in assay [2] were ≤ 5000 nM and ≤ 500 nM, respectively.
As for `N#Cc1ccc2nc(Nc3cnn(CCO)c3)nc(N[C@H]3CC[C@H](N4CCOCC4)CC3)c2c1` [Compound I-22, 2-((1-(2-hydroxyethyl)-1H-pyrazol-4-yl)amino)-4-(((1r,4r)-4-morpholinocyclohexyl)amino)quinazoline-6-carbonitrile], the IC50 in assay [1] is ≤ 5000 nM; in assay [2], 500 to 5000 nM; in assay [3] it was ≤ 500 nM.
With `N#Cc1ccc2nc(Nc3cnn(CCOCCO)c3)nc(N[C@H]3CC[C@H](N4CCOCC4)CC3)c2c1` [Compound I-24, 2-((1-(2-(2-hydroxyethoxy)ethyl)-1H-pyrazol-4-yl)amino)-4-(((1r,4r)-4-morpholinocyclohexyl)amino)quinazoline-6-carbonitrile], the values for the half-maximal inhibitory concentration (IC50) in assay [1], in assay [2] and in assay [3] were ≤ 5000 nM, 500 to 5000 nM and ≤ 500 nM, respectively.
With `CS(=O)(=O)CCCn1cc(Nc2nc(N[C@H]3CC[C@H](N4CCOCC4)CC3)c3cc(C#N)ccc3n2)cn1` [Compound I-25, 2-((1-(3-(methylsulfonyl)propyl)-1H-pyrazol-4-yl)amino)-4-(((1r,4r)-4-morpholinocyclohexyl)amino)quinazoline-6-carbonitrile], the IC50 was ≤ 5000 nM in assay [1], 500 to 5000 nM in assay [2] and 500 to 5000 nM in assay [3].
Regarding `Clc1ccc2ncnc(N[C@H]3CC[C@H](N4CCOCC4)CC3)c2c1` [Compound I-26, 6-chloro-N-((1r,4r)-4-morpholinocyclohexyl)quinazolin-4-amine], the IC50 in assay [1] was ≤ 5000 nM; in assay [2], ≤ 500 nM; in assay [3] it was ≤ 500 nM.
In the case of `Clc1ccc2ncnc(N[C@H]3CC[C@H](N4CCC5(CC4)COC5)CC3)c2c1` [Compound I-27, N-((1r,4r)-4-(2-oxa-7-azaspiro[3.5]nonan-7-yl)cyclohexyl)-6-chloroquinazolin-4-amine], the IC50 was ≤ 5000 nM in assay [1], ≤ 500 nM in assay [2] and ≤ 500 nM in assay [3].
As to `N#Cc1ccc2nc(Nc3cnn(C4CCC(O)CC4)c3)nc(N[C@H]3CC[C@H](N4CCOCC4)CC3)c2c1` (some centres unmarked) [Compound I-28, 2-((1-(4-hydroxycyclohexyl)-1H-pyrazol-4-yl)amino)-4-(((1r,4r)-4-morpholinocyclohexyl)amino)quinazoline-6-carbonitrile], the IC50 in assay [1] was ≤ 5000 nM; in assay [2], ≤ 500 nM; in assay [3], ≤ 500 nM.
As for `c1nc(N[C@H]2CC[C@H](N3CCOCC3)CC2)c2c3c(ccc2n1)CCC3` [Compound I-29, N-((1r,4r)-4-morpholinocyclohexyl)-8,9-dihydro-7H-cyclo-penta[f]quinazolin-1-amine], the IC50 is ≤ 5000 nM in assay [1], 500 to 5000 nM in assay [2] and ≤ 500 nM in assay [3].
Take `OCC#Cc1ccc2ncnc(N[C@H]3CC[C@H](N4CCOCC4)CC3)c2c1` [Compound I-30, 3-(4-(((1r,4r)-4-morpholinocyclohexyl)amino)quinazolin-6-yl)prop-2-yn-1-ol]: the figures for the half-maximal inhibitory concentration (IC50) in assay [1], in assay [2] and in assay [3] were ≤ 5000 nM, ≤ 500 nM and ≤ 500 nM, respectively.
